Measured values reported in PubChem BioAssay (NCI).
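Briefly, cells in 96-well plates were exposed to five compound concentrations for 48 h, and endpoints were estimated by linear interpolation. GI50: concentration for 50% inhibition of growth. At the TGI there is no net growth.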

Columns and labels:
Test in all cases: inhibition of tumour cell growth, NCI panel, 48 h
CAKI-1 renal = system: CAKI-1 renal
A549 NSCLC = system: A549 NSCLC
T-47D breast = system: T-47D breast
HOP-92 NSCLC = system: HOP-92 NSCLC
MCF7 breast = system: MCF7 breast
PC-3 prostate = system: PC-3 prostate
SK-MEL-28 melanoma = system: SK-MEL-28 melanoma
DU-145 prostate = system: DU-145 prostate
HCT-116 colon = system: HCT-116 colon
SN12C renal = system: SN12C renal
SK-MEL-2 melanoma = system: SK-MEL-2 melanoma
RPMI-8226 leukemia = system: RPMI-8226 leukemia
MDA-MB-435 = system: MDA-MB-435
U251 CNS = system: U251 CNS
HL-60(TB) leukemia = system: HL-60(TB) leukemia
EKVX NSCLC = system: EKVX NSCLC
A498 renal = system: A498 renal
OVCAR-4 ovarian = system: OVCAR-4 ovarian
ACHN renal = system: ACHN renal
HCC-2998 colon = system: HCC-2998 colon
LOX IMVI melanoma = system: LOX IMVI melanoma
IGROV1 ovarian = system: IGROV1 ovarian
NCI-H460 lung = system: NCI-H460 lung
M14 melanoma = system: M14 melanoma
NCI/ADR-RES ovarian = system: NCI/ADR-RES ovarian
SF-268 CNS = system: SF-268 CNS
K-562 leukemia = system: K-562 leukemia
SF-539 CNS = system: SF-539 CNS
COLO 205 colon = system: COLO 205 colon
MALME-3M melanoma = system: MALME-3M melanoma
SK-MEL-5 melanoma = system: SK-MEL-5 melanoma
786-0 renal = system: 786-0 renal
SNB-19 CNS = system: SNB-19 CNS
OVCAR-3 ovarian = system: OVCAR-3 ovarian
MDA-MB-231 breast = system: MDA-MB-231 breast
RXF 393 renal = system: RXF 393 renal
SF-295 CNS = system: SF-295 CNS
HS 578T breast = system: HS 578T breast
UO-31 renal = system: UO-31 renal
BT-549 breast = system: BT-549 breast
SK-OV-3 ovarian = system: SK-OV-3 ovarian
SNB-75 CNS = system: SNB-75 CNS
HOP-62 NSCLC = system: HOP-62 NSCLC
OVCAR-8 ovarian = system: OVCAR-8 ovarian
HT29 colon = system: HT29 colon
TK-10 renal = system: TK-10 renal
MOLT-4 leukemia = system: MOLT-4 leukemia
KM12 colon = system: KM12 colon
CCRF-CEM leukemia = system: CCRF-CEM leukemia
HCT-15 colon = system: HCT-15 colon
NCI-H23 lung = system: NCI-H23 lung
OVCAR-5 ovarian = system: OVCAR-5 ovarian
NCI-H226 lung = system: NCI-H226 lung
SW-620 colon = system: SW-620 colon
NCI-H522 lung = system: NCI-H522 lung
UACC-257 melanoma = system: UACC-257 melanoma

**Q.** For `COc1cc2c(cc1O)c(=O)n(CCN(C)C)c1c3cc4c(cc3ncc21)OCO4`, which GI50 (CAKI-1 renal) is on record?
**A.** < 10 nM

**Q.** What about the TGI (CAKI-1 renal) of the same compound?
**A.** 1240 nM

**Q.** And the GI50 (A549 NSCLC)?
**A.** 35.6 nM

**Q.** And the TGI (A549 NSCLC)?
**A.** 594 nM

**Q.** And the GI50 (T-47D breast)?
**A.** < 10 nM

**Q.** What about the TGI (T-47D breast) of the same compound?
**A.** 63.1 nM

**Q.** What about the GI50 (HOP-92 NSCLC) of the same compound?
**A.** 32.5 nM

**Q.** And the TGI (HOP-92 NSCLC)?
**A.** 455 nM

**Q.** And the GI50 (MCF7 breast)?
**A.** < 10 nM

**Q.** And the TGI (MCF7 breast)?
**A.** 1620 nM

**Q.** And the GI50 (PC-3 prostate)?
**A.** 243 nM

**Q.** What about the TGI (PC-3 prostate) of the same compound?
**A.** 2510 nM

**Q.** And the GI50 (SK-MEL-28 melanoma)?
**A.** 53 nM

**Q.** What about the TGI (SK-MEL-28 melanoma) of the same compound?
**A.** 1010 nM

**Q.** And the GI50 (DU-145 prostate)?
**A.** < 10 nM

**Q.** And the TGI (DU-145 prostate)?
**A.** 1940 nM

**Q.** And the GI50 (HCT-116 colon)?
**A.** 11.7 nM

**Q.** And the TGI (HCT-116 colon)?
**A.** 1250 nM

**Q.** And the GI50 (SN12C renal)?
**A.** < 10 nM

**Q.** What about the TGI (SN12C renal) of the same compound?
**A.** 10500 nM

**Q.** And the GI50 (SK-MEL-2 melanoma)?
**A.** 136 nM

**Q.** And the TGI (SK-MEL-2 melanoma)?
**A.** 360 nM

**Q.** What about the GI50 (RPMI-8226 leukemia) of the same compound?
**A.** 24.2 nM

**Q.** What about the TGI (RPMI-8226 leukemia) of the same compound?
**A.** 434 nM

**Q.** What about the GI50 (MDA-MB-435) of the same compound?
**A.** 19.5 nM

**Q.** And the TGI (MDA-MB-435)?
**A.** 258 nM

**Q.** And the GI50 (U251 CNS)?
**A.** < 10 nM

**Q.** And the TGI (U251 CNS)?
**A.** 42.6 nM

**Q.** And the GI50 (HL-60(TB) leukemia)?
**A.** < 10 nM

**Q.** And the TGI (HL-60(TB) leukemia)?
**A.** 104 nM

**Q.** What about the GI50 (EKVX NSCLC) of the same compound?
**A.** 239 nM

**Q.** And the TGI (EKVX NSCLC)?
**A.** 3660 nM

**Q.** What about the GI50 (A498 renal) of the same compound?
**A.** 23.4 nM

**Q.** What about the TGI (A498 renal) of the same compound?
**A.** 88.2 nM

**Q.** And the GI50 (OVCAR-4 ovarian)?
**A.** 51.1 nM

**Q.** And the TGI (OVCAR-4 ovarian)?
**A.** 1740 nM

**Q.** And the GI50 (ACHN renal)?
**A.** < 10 nM

**Q.** What about the TGI (ACHN renal) of the same compound?
**A.** 46.4 nM

**Q.** And the GI50 (HCC-2998 colon)?
**A.** 109 nM

**Q.** What about the TGI (HCC-2998 colon) of the same compound?
**A.** 398 nM

**Q.** And the GI50 (LOX IMVI melanoma)?
**A.** < 10 nM

**Q.** And the TGI (LOX IMVI melanoma)?
**A.** 24.5 nM

**Q.** What about the GI50 (IGROV1 ovarian) of the same compound?
**A.** 41.7 nM

**Q.** What about the TGI (IGROV1 ovarian) of the same compound?
**A.** 8200 nM

**Q.** What about the GI50 (NCI-H460 lung) of the same compound?
**A.** < 10 nM

**Q.** And the TGI (NCI-H460 lung)?
**A.** 329 nM

**Q.** And the GI50 (M14 melanoma)?
**A.** < 10 nM

**Q.** And the TGI (M14 melanoma)?
**A.** 53.5 nM

**Q.** What about the GI50 (NCI/ADR-RES ovarian) of the same compound?
**A.** < 10 nM

**Q.** What about the TGI (NCI/ADR-RES ovarian) of the same compound?
**A.** 526 nM

**Q.** What about the GI50 (SF-268 CNS) of the same compound?
**A.** < 10 nM

**Q.** And the TGI (SF-268 CNS)?
**A.** 19900 nM

**Q.** And the GI50 (K-562 leukemia)?
**A.** 19 nM

**Q.** And the TGI (K-562 leukemia)?
**A.** > 100000 nM

**Q.** What about the GI50 (SF-539 CNS) of the same compound?
**A.** < 10 nM

**Q.** And the TGI (SF-539 CNS)?
**A.** 22.3 nM

**Q.** What about the GI50 (COLO 205 colon) of the same compound?
**A.** 1520 nM

**Q.** And the TGI (COLO 205 colon)?
**A.** 15200 nM

**Q.** What about the GI50 (MALME-3M melanoma) of the same compound?
**A.** 29.1 nM

**Q.** What about the TGI (MALME-3M melanoma) of the same compound?
**A.** 192 nM

**Q.** And the GI50 (SK-MEL-5 melanoma)?
**A.** 12.1 nM

**Q.** What about the TGI (SK-MEL-5 melanoma) of the same compound?
**A.** 31.2 nM

**Q.** What about the GI50 (786-0 renal) of the same compound?
**A.** < 10 nM

**Q.** And the TGI (786-0 renal)?
**A.** 29.1 nM

**Q.** And the GI50 (SNB-19 CNS)?
**A.** < 10 nM

**Q.** And the TGI (SNB-19 CNS)?
**A.** 5300 nM

**Q.** What about the GI50 (OVCAR-3 ovarian) of the same compound?
**A.** 38.8 nM

**Q.** What about the TGI (OVCAR-3 ovarian) of the same compound?
**A.** 423 nM

**Q.** And the GI50 (MDA-MB-231 breast)?
**A.** 61.6 nM

**Q.** And the TGI (MDA-MB-231 breast)?
**A.** 5580 nM

**Q.** What about the GI50 (RXF 393 renal) of the same compound?
**A.** 31.8 nM

**Q.** What about the TGI (RXF 393 renal) of the same compound?
**A.** 116 nM

**Q.** What about the GI50 (SF-295 CNS) of the same compound?
**A.** 51.7 nM

**Q.** And the TGI (SF-295 CNS)?
**A.** 4020 nM

**Q.** And the GI50 (HS 578T breast)?
**A.** 366 nM

**Q.** And the TGI (HS 578T breast)?
**A.** 26100 nM

**Q.** And the GI50 (UO-31 renal)?
**A.** < 12.4 nM

**Q.** What about the TGI (UO-31 renal) of the same compound?
**A.** 170 nM

**Q.** What about the GI50 (BT-549 breast) of the same compound?
**A.** 25 nM

**Q.** And the TGI (BT-549 breast)?
**A.** 915 nM

**Q.** And the GI50 (SK-OV-3 ovarian)?
**A.** < 10.6 nM

**Q.** What about the TGI (SK-OV-3 ovarian) of the same compound?
**A.** 87.6 nM

**Q.** What about the GI50 (SNB-75 CNS) of the same compound?
**A.** < 15.2 nM

**Q.** And the TGI (SNB-75 CNS)?
**A.** 315 nM

**Q.** And the GI50 (HOP-62 NSCLC)?
**A.** < 10 nM

**Q.** What about the TGI (HOP-62 NSCLC) of the same compound?
**A.** 44 nM

**Q.** And the GI50 (OVCAR-8 ovarian)?
**A.** < 11.6 nM

**Q.** And the TGI (OVCAR-8 ovarian)?
**A.** 2520 nM

**Q.** And the GI50 (HT29 colon)?
**A.** 729 nM

**Q.** What about the TGI (HT29 colon) of the same compound?
**A.** 7860 nM

**Q.** What about the GI50 (TK-10 renal) of the same compound?
**A.** 127 nM

**Q.** What about the TGI (TK-10 renal) of the same compound?
**A.** 524 nM

**Q.** What about the GI50 (MOLT-4 leukemia) of the same compound?
**A.** < 10 nM

**Q.** And the TGI (MOLT-4 leukemia)?
**A.** 27.1 nM

**Q.** What about the GI50 (KM12 colon) of the same compound?
**A.** 177 nM

**Q.** And the GI50 (CCRF-CEM leukemia)?
**A.** < 10 nM

**Q.** And the TGI (CCRF-CEM leukemia)?
**A.** > 26800 nM

**Q.** What about the GI50 (HCT-15 colon) of the same compound?
**A.** 28.4 nM

**Q.** And the GI50 (NCI-H23 lung)?
**A.** < 10 nM

**Q.** And the TGI (NCI-H23 lung)?
**A.** 151 nM

**Q.** What about the GI50 (OVCAR-5 ovarian) of the same compound?
**A.** 325 nM

**Q.** And the TGI (OVCAR-5 ovarian)?
**A.** 2820 nM

**Q.** What about the GI50 (NCI-H226 lung) of the same compound?
**A.** 18.4 nM

**Q.** What about the TGI (NCI-H226 lung) of the same compound?
**A.** 124 nM

**Q.** What about the GI50 (SW-620 colon) of the same compound?
**A.** < 10 nM

**Q.** And the TGI (SW-620 colon)?
**A.** > 33200 nM

**Q.** And the GI50 (NCI-H522 lung)?
**A.** < 10.4 nM

**Q.** What about the TGI (NCI-H522 lung) of the same compound?
**A.** 154 nM

**Q.** And the GI50 (UACC-257 melanoma)?
**A.** 45.1 nM

**Q.** What about the TGI (UACC-257 melanoma) of the same compound?
**A.** 285 nM
